Measured values: patent US20240124467A1, “FUSED PYRIMIDINE COMPOUNDS AS INHIBITORS OF MENIN-MLL INTERACTION” (Biomea Fusion, Inc., priority 2020, published 2024)
Read-outs that look alike come from different tables or passages of the source.

Experiments:
Assay type in all cases: cell-based
[1] = tested on: K-562; assay: Cell proliferation inhibition (CellTiter-Glo), K-562 cells; details: Homo sapiens, K-562 (BCR-ABL)
Protocol: (§1) The present example evaluates the ability of compounds described herein, inhibitors of Menin/MLL interaction, to inhibit cell proliferation. The proliferation inhibitory effect was investigated in human MLL-leukemia cells selected on the bases of MLL fusion proteins and listed in the table below.
(§2) ATP is present in all metabolically active cells and is considered as a marker for cell viability and proliferation. The metabolic cell activity was determined using the CellTiter-Glo kit from Promega, an ATP monitoring system based on the production of luminescence by the reaction of ATP with added UltraGlo® recombinant luciferase (Kawano et al., 2016, PLOS One, 8:11(7):e0158888), according to the supplier's experimental recommendations. The assay is based on a 96 well plate format. All experiments were carried out in duplicate in one test occasion.
(§3) Test items were dissolved at 20 mM in DMSO with purity ≥99.9% (Sigma catalog no. D8418) and stored at −20° C. Cells were maintained in RPMI-1640 medium (Invitrogen catalog no. 618700) supplemented with 10% of Heat Inactivated FBS (Invitrogen catalog no. 10500) and 1% Pen-Strep (Invitrogen catalog no. 15140) and cultured at 37° C. in a humidified incubator with 5% CO2. Cell lines were grown in suspension and the cell density was maintained in a range of 5×10^4-1×10^6 viable cells/ml where possible. Cells were pelleted at 130 g×5 min.
(§4) Serial dilutions of compounds 1 to 3 in DMSO 100% were prepared starting from a 2.5 mM solutions (prepared by diluting 1:8 the 20 mM stock solution) to generate a 7 point concentration response curve (CRC). Seven concentrations of test compounds (e.g., 5.00×10^−6-1.67×10^−6-5.56×10^−7-1.85×10^−7-6.17×10^−8-2.06×10^−8-6.86×10^−9 M) were assessed in duplicate in an individual test occasion in parallel in the selected cell lines. KO-539 was used as a reference compound and tested in duplicate at seven similar concentrations. 100% of proliferation was represented by the untreated cells (0.2% DMSO).
(§5) Cell proliferation inhibition was monitored at both the following end points: Day 4 (T4) and Day 7 (T7). For the appropriate cell density during the exponential cell growth and re-supply with fresh compound solution at T4, cells were diluted (1:4) with fresh medium containing the compound concentration (1×).
(§6) For each plate to test, one 0.4 μL copy plate and four 0.3 μL copy plates were stamped into 96-well plates not treated for cell adhesion (Sarstedt—cat. no. 82.1581.001) by acoustic liquid handling (Echo) at a concentration which was 500 fold the final assay concentration. Stamped plates were stored at −20° C.
(§7) On Day 0, the day of the experiment cell line suspensions were counted by Cell Viability Analyser, Vi-CELL (Beckman Coulter AY15292), and diluted with fresh medium to obtain the following cell densities: K-562 500 c/ml, MOLM-13 1,000 c/ml, MV4-11 10,000 c/ml, OCI-AML-3 500 c/ml, and U-937 500-1,000 c/ml. 200 μL/well and 150 μL/well of cell suspension were added into the 0.4 μL/well and 0.3 μL/well compound plates, respectively. Cell plate containing 200 μL/well suspension were incubated at 37° C. in a humidified incubator with 5% CO2. From each well of the 150 μL/well cell assay plate, 100 μL were harvested and transferred into a 96-well Optiplate (Perkin Elmer, cat. no. 6005290). Cell viability was measured as described below.
(§8) On Day 4, 150p/well of fresh medium was added into a new 0.3 μL/well copy compound plates. From each well of the 200 μL/well cell assay plate, 100 μL was sampled for the cell viability measurement as described below. 50p was harvested and added to the 150p/well compound plate prepared as described in the first point to dilute 1:4 the cell suspension. The cell assay plate diluted and containing 200 μL/well suspension was incubated at 37° C. in a humidified incubator with 5% CO2.
(§9) On Day 4, 150p/well of fresh medium was added into a new 0.3 μL/well copy compound plates. […]

[2] = tested on: MOLM-13; assay: Cell proliferation inhibition (CellTiter-Glo), MOLM-13 cells; details: Homo sapiens, MOLM-13 (MLL-AF9)
Protocol: as §1, §2, §3, §4, §5, §6, §7, §8, §9

[3] = tested on: MV4-11; assay: Cell proliferation inhibition (CellTiter-Glo), MV4-11 cells; details: Homo sapiens, MV4-11 (MLL-AF4)
Protocol: as §1, §2, §3, §4, §5, §6, §7, §8, §9

[4] = K562, 96 h, Day 4, read-out: K-562 IC50 μM (Day 4)
[5] = 96 h, Day 4, read-out: MOLM-13 Day IC50 μM (Day 4)*
[6] = 96 h, Day 4, read-out: MV-4:11 IC50 μM (Day 4)*
[7] = K562, 168 h, Day 7, read-out: K-562 IC50 μM (Day 7)*
[8] = 168 h, Day 7, read-out: MOLM-13 Day IC50 μM (Day 7)*
[9] = 168 h, Day 7, read-out: MV-4:11 IC50 μM (Day 7)*

| IC50 [1, 4] [µM] | IC50 [2, 5] [µM] | IC50 [3, 6] [µM] | IC50 [1, 7] [µM] | IC50 [2, 8] [µM] | IC50 [3, 9] [µM] | SMILES |
| --- | --- | --- | --- | --- | --- | --- |
| > 10 | > 10 | > 10 |  |  |  | C=CC(=O)N[C@@H]1CCCN(Cc2cccc(S(=O)(=O)Nc3ccc(-c4nc5c(N6CCOCC6)ncnc5s4)nc3)c2)C1 [Compound B0700-534, (R)—N-(1-(3-(N-(6-(7-morpholinothiazolo[5,4-d]pyrimidin-2-yl)pyridin-3-yl)sulfamoyl)benzyl)piperidin-3-yl)acrylamide] |
| 9.07 | 0.158 | 0.073 |  |  |  | C=CC(=O)N[C@H]1CCN(c2cccc(C(C)S(=O)(=O)Nc3ccc(-c4cc5c(N6CCOCC6)ncnc5[nH]4)cc3)c2)C1 (stereo partly drawn) [Compound B0700-543] |
| > 10 | 0.631 | 0.651 | > 10 | 0.546 | 0.54 | C=CC(=O)N[C@@H]1CCCN(Cc2ccnc(C(C)Nc3ccc(-c4cc5c(N6CCOCC6)ncnc5[nH]4)cc3)c2)C1 (stereo partly drawn) [Compound B0700-514, N-((3R)-1-((2-(1-((4-(4-morpholino-7H-pyrrolo[2,3-d]pyrimidin-6-yl)phenyl)amino)ethyl)pyridin-4-yl)methyl)piperidin-3-yl)acrylamide] |
| > 10 | 5.21 | 4.22 |  |  |  | C=CC(=O)NC1CN(c2ccnc(NC3CC4(CCN(c5nc6c(N7CCOCC7)ncnc6[nH]5)CC4)C3)c2)C1 [Compound B0700-507, N-(1-(2-((7-(6-morpholino-9H-purin-8-yl)-7-azaspiro[3.5]nonan-2-yl)amino)pyridin-4-yl)azetidin-3-yl)acrylamide] |
| > 10 | > 10 | > 10 |  |  |  | C=CC(=O)N[C@@H]1CCCN(Cc2cccc(S(=O)(=O)Nc3ccc(-c4nc5c(N6CCOCC6)ncnc5s4)cc3)c2)C1 [Compound B0700-532, (R)—N-(1-(3-(N-(4-(7-morpholinothiazolo[5,4-d]pyrimidin-2-yl)phenyl)sulfamoyl)benzyl)piperidin-3-yl)acrylamide] |
| 5.18 | > 10 | > 10 |  |  |  | C=CC(=O)N1CC(N2CCCC(CNS(=O)(=O)N3CCN(c4nc5c(N6CCOCC6)ncnc5[nH]4)CC3)C2)C1 (stereo not drawn) [Compound B0700-512] |
| 3.3 | 0.48 | 0.322 |  |  |  | C=CS(=O)(=O)N[C@@H]1CCCN(c2cccc(CS(=O)(=O)Nc3ccc(-c4cc5c(N6CCOCC6)ncnc5[nH]4)cc3)c2)C1 [Compound B0700-542, (R)—N-(1-(3-((N-(4-(4-morpholino-7H-pyrrolo[2,3-d]pyrimidin-6-yl)phenyl)sulfamoyl)methyl)phenyl)piperidin-3-yl)ethenesulfonamide] |
| 6.7 | 0.506 | 0.634 |  |  |  | CCN(C/C=C/C(=O)N[C@@H]1CCCN(Cc2ccnc(C(=O)Nc3ccc(-c4cc5c(N6CCOCC6)ncnc5[nH]4)cc3)c2)C1)C1CC1 [Compound B0700-525] |
| 7.05 | 0.184 | > 10 |  |  |  | C=CC(=O)N[C@@H]1CCN(c2cccc(CS(=O)(=O)Nc3ccc(-c4cc5c(N6CCOCC6)ncnc5[nH]4)cc3)c2)C1 [Compound B0700-535, (R)—N-(1-(3-((N-(4-(4-morpholino-7H-pyrrolo[2,3-d]pyrimidin-6-yl)phenyl)sulfamoyl)methyl)phenyl)pyrrolidin-3-yl)acrylamide] |
| 0.554 | 0.923 | 0.696 | 0.186 | 0.523 | 1.03 | C=CC(=O)N[C@@H]1CCCN(Cc2ccnc(C(=O)Nc3ccc(-c4cc5c(N6CCOCC6)nccc5[nH]4)cc3)c2)C1 [Compound B0700-614, (R)-4-((3-acrylamidopiperidin-1-yl)methyl)-N-(4-(4-morpholino-1H-pyrrolo[3,2-c]pyridin-2-yl)phenyl)picolinamide] |
| 2.06 | 0.193 | 0.09 |  |  |  | C=CS(=O)(=O)N[C@H]1CCN(c2cccc(CS(=O)(=O)Nc3ccc(-c4cc5c(N6CCOCC6)ncnc5[nH]4)cc3)c2)C1 [Compound B0700-541] |
